Results taken from patent US9079901B2, “Fused heterocyclic compounds as ion channel modulators” (Gilead Sciences, Inc., priority 2010, dated 2015).

Molecular target: wild-type human cardiac sodium channel, hNav1.5 (late sodium current) in HEK293 cells (Homo sapiens, UniProt Q14524)
Experiment: Late INa screening assay (automated whole-cell patch clamp, PatchXpress)
Format: cell-based
Conditions: late INa generated with 10 μM Tefluthrin (or 50 nM ATX II), HEK293 hNav1.5; for inhibition at 1 µM: HEK293, compound at 1 μM, read-out: Late INa 1 μM (percent block of late INa)
Description: The late sodium current (Late INa) and peak sodium current (Peak INa) assays are performed on an automated electrophysiology platform, PatchXpress 7000A (MDS Analytical Technologies, Sunnyvale, Calif.), which uses the whole cell patch clamp technique to measure currents through the cell membrane of up to 16 cells at a time. The assay uses an HEK293 (human embryonic kidney) cell line heterologously expressing the wild-type human cardiac sodium channel, hNav1.5, purchased from Millipore (Billerica, Mass.). No beta subunits were coexpressed with the Na channel alpha subunit. Cells are maintained with standard tissue culture procedures and stable channel expression is maintained with 400 μg/ml Geneticin in the culture medium. Cells isolated for use on PatchXpress are incubated for 5 minutes in Versene 1× and then for 2 minutes in 0.0125% Trypsin-EDTA (both at 37° C.) to ensure that 80-90% of the cells are single and not part of a cell cluster. Experiments are carried out at 24-27° C.
For both the Late INa and Peak INa assays, series resistance compensation is set to 50% and whole-cell compensation is performed automatically. Currents are low-pass filtered at 10 kHz and digitized at 31.25 kHz. Currents through open sodium channels are automatically recorded and stored in the DataXpress2 database (MDS Analytical Technologies, Sunnyvale, Calif.). Analysis is performed using DataXpress2 analysis software and data are compiled in Excel.
Compound stocks are routinely made in glass vials to 10 mM in dimethyl sulfoxide (DMSO). In some cases, when compounds are not soluble in DMSO, they are made in 100% ethanol. Stocks are sonicated as necessary. The extracellular solution for screening Late INa is composed of: 140 mM NaCl, 4 mM KCl, 1.8 mM CaCl2, 0.75 mM MgCl2, and 5 mM HEPES with pH adjusted to 7.4 using NaOH. The extracellular solution for screening Peak INa is composed of: 20 mM NaCl, 120 mM N-methyl-D glucamine, 4 mM KCl, 1.8 mM CaCl2, 0.75 mM MgCl2, and 5 mM HEPES with pH adjusted to 7.4 using HCl. The intracellular solution used to perfuse the inside of the cells for both the Late INa and Peak INa assays contains: 120 mM CsF, 20 mM CsCl, 5 mM EGTA, 5 mM HEPES and pH adjusted to 7.4 with CsOH. Compounds are diluted in extracellular solution to 10 μM in glass vials and then transferred to glass well plates before robotic addition to the cells. The 0Na extracellular solution used at the end of each experiment for the Late INa and Peak INa assays to measure baseline current contains: 140 mM N-methyl-D-glucamine; 4 mM KCl; 1.8 mM CaCl2; 0.75 mM MgCl2; 5 mM HEPES and pH was adjusted to 7.4 with HCl.
For the Late INa assay, sodium channels are activated every 10 seconds (0.1 Hz) by depolarizing the cell membrane to −20 mV for 250 milliseconds (ms) from a holding potential of −120 mV. In response to a −20 mV voltage step, typical Nav1.5 sodium currents activate rapidly to a peak negative current and then inactivate nearly completely within 3-4 ms.
All compounds are tested to determine their activity in blocking the late sodium current. Late INa current is generated by adding 10 μM Tefluthrin (pyrethroid) to the extracellular solution while recording Na currents. For some experiments, 50 nM ATX II (sea anemone toxin), another late INa activator, was used to generate the late component. Both activators generate late components that are large enough that block of the late component by compounds can be measured easily. For the purposes of the screening, late INa is defined as the mean current between 225 ms and 250 ms after stepping to −20 mV to activate Na channels. After establishing the whole cell recording configuration, late INa activators are added to each well 4 times over a 16-17 minute period so that the late component of the Na current reaches a stable value. Compounds are then added (typically at 10 μM), in the presence of late INa activator, with 3 additions over the course of 7 or 8 minutes. […]

wild-type human cardiac sodium channel, hNav1.5 (late sodium current) in HEK293 cells, sequence (Q14524 whole entry): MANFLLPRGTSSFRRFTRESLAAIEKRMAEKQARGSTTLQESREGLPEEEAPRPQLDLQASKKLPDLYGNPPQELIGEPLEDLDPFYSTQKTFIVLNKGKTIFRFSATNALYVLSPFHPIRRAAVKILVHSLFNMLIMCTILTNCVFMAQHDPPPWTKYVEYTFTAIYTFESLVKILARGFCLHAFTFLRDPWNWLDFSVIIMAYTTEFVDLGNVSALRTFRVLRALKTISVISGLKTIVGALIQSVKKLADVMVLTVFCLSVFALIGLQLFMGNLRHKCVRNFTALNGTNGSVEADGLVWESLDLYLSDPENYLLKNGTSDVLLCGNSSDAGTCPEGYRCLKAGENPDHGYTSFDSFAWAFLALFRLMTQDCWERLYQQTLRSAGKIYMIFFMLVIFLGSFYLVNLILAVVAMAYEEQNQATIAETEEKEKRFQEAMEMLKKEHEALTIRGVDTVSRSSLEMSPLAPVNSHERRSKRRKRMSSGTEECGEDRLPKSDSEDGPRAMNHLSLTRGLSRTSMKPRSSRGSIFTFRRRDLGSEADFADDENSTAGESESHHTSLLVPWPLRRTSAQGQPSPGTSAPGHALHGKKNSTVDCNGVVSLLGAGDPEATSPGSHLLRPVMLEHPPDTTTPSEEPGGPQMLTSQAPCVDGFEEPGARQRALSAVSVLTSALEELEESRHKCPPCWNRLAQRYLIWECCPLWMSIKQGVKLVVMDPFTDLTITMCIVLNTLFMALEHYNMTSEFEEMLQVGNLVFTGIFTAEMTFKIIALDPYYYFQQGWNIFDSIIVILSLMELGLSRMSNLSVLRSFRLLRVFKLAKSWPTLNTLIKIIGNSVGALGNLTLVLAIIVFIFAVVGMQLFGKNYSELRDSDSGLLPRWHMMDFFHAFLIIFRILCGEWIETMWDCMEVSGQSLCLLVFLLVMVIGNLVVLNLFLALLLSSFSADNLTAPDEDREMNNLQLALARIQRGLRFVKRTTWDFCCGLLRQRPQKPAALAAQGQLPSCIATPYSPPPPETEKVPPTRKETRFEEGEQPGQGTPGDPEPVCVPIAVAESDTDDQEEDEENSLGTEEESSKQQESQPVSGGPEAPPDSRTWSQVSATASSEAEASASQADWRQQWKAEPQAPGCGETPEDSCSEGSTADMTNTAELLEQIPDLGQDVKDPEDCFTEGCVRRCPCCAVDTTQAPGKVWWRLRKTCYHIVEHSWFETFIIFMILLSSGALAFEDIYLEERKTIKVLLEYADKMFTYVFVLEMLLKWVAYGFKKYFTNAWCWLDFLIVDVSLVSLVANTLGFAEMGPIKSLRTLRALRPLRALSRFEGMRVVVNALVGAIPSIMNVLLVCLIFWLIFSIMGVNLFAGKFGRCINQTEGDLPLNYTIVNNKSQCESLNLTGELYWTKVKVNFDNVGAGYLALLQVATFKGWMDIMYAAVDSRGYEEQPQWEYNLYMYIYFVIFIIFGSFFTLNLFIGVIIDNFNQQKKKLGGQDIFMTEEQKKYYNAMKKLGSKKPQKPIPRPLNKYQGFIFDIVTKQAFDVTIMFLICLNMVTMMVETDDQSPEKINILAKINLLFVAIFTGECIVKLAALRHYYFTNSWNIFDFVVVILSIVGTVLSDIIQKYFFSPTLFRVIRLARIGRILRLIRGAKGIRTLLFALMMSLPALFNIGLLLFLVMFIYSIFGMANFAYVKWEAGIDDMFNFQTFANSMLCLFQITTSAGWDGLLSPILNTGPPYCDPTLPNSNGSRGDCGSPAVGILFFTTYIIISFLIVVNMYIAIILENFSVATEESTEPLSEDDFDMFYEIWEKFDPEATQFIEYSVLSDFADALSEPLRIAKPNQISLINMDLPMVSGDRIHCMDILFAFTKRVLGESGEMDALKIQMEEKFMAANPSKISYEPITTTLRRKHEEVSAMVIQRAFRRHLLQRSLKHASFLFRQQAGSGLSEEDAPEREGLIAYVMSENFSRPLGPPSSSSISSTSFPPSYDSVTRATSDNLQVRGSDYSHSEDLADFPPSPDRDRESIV

CCc1noc(Cn2nc3ccc(-c4ccc(OC(F)(F)F)cc4)cn3c2=O)n1 [compound 15, 2-((3-ethyl-1,2,4-oxadiazol-5-yl)methyl)-6-(4-(trifluoromethoxy)phenyl)-[1,2,4]triazolo[4,3-a]pyridin-3(2H)-one]
Late INa 1 μM (percent block of late INa) (compound at 1 μM): 13.5253%

O=c1[nH]nc2ccc(-c3ccc(C(F)(F)F)cc3)cn12 [compound 171, 6-(4-(trifluoromethyl)phenyl)-[1,2,4]triazolo[4,3-a]pyridin-3(2H)-one]
inhibition at 1 µM: 19.6%

O=c1n(CCCc2ccc(F)c(-c3ncco3)c2)nc2ccc(-c3ccc(OC(F)(F)F)cc3)cn12 [compound 119, 2-(3-(4-fluoro-3-(oxazol-2-yl)phenyl)propyl)-6-(4-(trifluoromethoxy)phenyl)-[1,2,4]triazolo[4,3-a]pyridin-3(2H)-one]
inhibition at 1 µM: 22%

O=c1n(CCOc2ccc(Cl)cc2)nc2ccc(-c3ccc(OC(F)(F)F)cc3)cn12 [compound 40, 2-(2-(4-chlorophenoxy)ethyl)-6-(4-(trifluoromethoxy)phenyl)-[1,2,4]triazolo[4,3-a]pyridin-3(2H)-one]
inhibition at 1 µM: 34.3%

CCOC(COc1ccc(F)cc1OC)Cn1nc2ccc(-c3ccc(OC(F)(F)F)cc3)cn2c1=O (stereo not drawn) [compound 105, 2-(2-ethoxy-3-(4-fluoro-2-methoxyphenoxy)propyl)-6-(4-(trifluoromethoxy)phenyl)-[1,2,4]triazolo[4,3-a]pyridin-3(2H)-one]
inhibition at 1 µM: 45%

O=c1n(CCc2cc(C3CC3)ccn2)nc2ccc(-c3ccc(OC(F)(F)F)cc3)cn12 [compound 57, 2-(2-(4-cyclopropylpyridin-2-yl)ethyl)-6-(4-(trifluoromethoxy)phenyl)-[1,2,4]triazolo[4,3-a]pyridin-3(2H)-one]
inhibition at 1 µM: 20.7%

O=c1n(CCc2ccc(-c3cccnc3)cn2)nc2ccc(-c3ccc(OC(F)(F)F)cc3)cn12 [compound 74, 2-(2-(3,3′-bipyridin-6-yl)ethyl)-6-(4-(trifluoromethoxy)phenyl)-[1,2,4]triazolo[4,3-a]pyridin-3(2H)-one]
inhibition at 1 µM: 11.1%

CO[C@H](COc1ccccc1Cl)Cn1nc2ccc(-c3ccc(OC(F)(F)F)cc3)cn2c1=O [compound 95, (S)-2-(3-(2-chlorophenoxy)-2-methoxypropyl)-6-(4-(trifluoromethoxy)phenyl)-[1,2,4]triazolo[4,3-a]pyridin-3(2H)-one]
inhibition at 1 µM: 42.5%

COC(COc1ccccc1Cl)Cn1nc2ccc(-c3ccc(OC(F)(F)F)cc3)cn2c1=O (stereo not drawn) [compound 80, 2-(3-(2-chlorophenoxy)-2-methoxypropyl)-6-(4-(trifluoromethoxy)phenyl)-[1,2,4]triazolo[4,3-a]pyridin-3(2H)-one]
inhibition at 1 µM: 33.4%

COCc1noc(Cn2nc3ccc(-c4ccc(OC(F)(F)F)cc4)cn3c2=O)n1 [compound 153, 2-((3-(methoxymethyl)-1,2,4-oxadiazol-5-yl)methyl)-6-(4-(trifluoromethoxy)phenyl)-[1,2,4]triazolo[4,3-a]pyridin-3(2H)-one]
inhibition at 1 µM: 23.2%

CC(Cn1nc2ccc(-c3ccc(OC(F)(F)F)cc3)cn2c1=O)c1ccccn1 (stereo not drawn) [compound 102, 2-(2-(pyridin-2-yl)propyl)-6-(4-(trifluoromethoxy)phenyl)-[1,2,4]triazolo[4,3-a]pyridin-3(2H)-one]
inhibition at 1 µM: 36.2%

Cc1noc(Cn2nc3ccc(-c4ccc(OC(F)(F)F)cc4C)cn3c2=O)n1 [compound 87, 2-((3-methyl-1,2,4-oxadiazol-5-yl)methyl)-6-(2-methyl-4-(trifluoromethoxy)phenyl)-[1,2,4]triazolo[4,3-a]pyridin-3(2H)-one]
inhibition at 1 µM: 21.3%

Cc1cnc(Cn2nc3ccc(-c4ccc(Cl)cc4)cn3c2=O)o1 [compound 195, 6-(4-chlorophenyl)-2-((5-methyloxazol-2-yl)methyl)-[1,2,4]triazolo[4,3-a]pyridin-3(2H)-one]
inhibition at 1 µM: 31.2%

COc1ccccc1OCCn1nc2ccc(-c3ccc(OC(F)(F)F)cc3)cn2c1=O [compound 69, 2-(2-(2-methoxyphenoxy)ethyl)-6-(4-(trifluoromethoxy)phenyl)-[1,2,4]triazolo[4,3-a]pyridin-3(2H)-one]
inhibition at 1 µM: 32.5%

O=c1n(Cc2ccc(OC(F)(F)F)cc2)nc2ccc(-c3ccc(OC(F)(F)F)cc3)cn12 [compound 12, 2-(4-(trifluoromethoxy)benzyl)-6-(4-(trifluoromethoxy)phenyl)-[1,2,4]triazolo[4,3-a]pyridin-3(2H)-one]
inhibition at 1 µM: 11.1%

O=c1n(CCCOc2cccnn2)nc2ccc(-c3ccc(OC(F)(F)F)cc3)cn12 [compound 79, 2-(3-(pyridazin-3-yloxy)propyl)-6-(4-(trifluoromethoxy)phenyl)-[1,2,4]triazolo[4,3-a]pyridin-3(2H)-one]
inhibition at 1 µM: 11.7%

O=c1n(Cc2noc(C3CC3)n2)nc2ccc(-c3ccc(OC(F)(F)F)cc3)cn12 [compound 142, 2-((5-cyclopropyl-1,2,4-oxadiazol-3-yl)methyl)-6-(4-(trifluoromethoxy)phenyl)-[1,2,4]triazolo[4,3-a]pyridin-3(2H)-one]
inhibition at 1 µM: 20%

O=c1n(Cc2nnc(C3CC3)o2)nc2ccc(-c3ccc(Oc4ccc(F)cc4)cc3)cn12 [compound 182, 2-((5-cyclopropyl-1,3,4-oxadiazol-2-yl)methyl)-6-(4-(4-fluorophenoxy)phenyl)-[1,2,4]triazolo[4,3-a]pyridin-3(2H)-one]
inhibition at 1 µM: 45.9%

O=c1n(Cc2noc(CO)n2)nc2ccc(-c3ccc(Oc4ccc(F)cc4)cc3)cn12 [compound 146, 6-(4-(4-fluorophenoxy)phenyl)-2-((5-(hydroxymethyl)-1,2,4-oxadiazol-3-yl)methyl)-[1,2,4]triazolo[4,3-a]pyridin-3(2H)-one]
inhibition at 1 µM: 32.6%

O=c1n(CCOc2nccc(OCCO)n2)nc2ccc(-c3ccc(OC(F)(F)F)cc3)cn12 [compound 156, 2-(2-(4-(2-hydroxyethoxy)pyrimidin-2-yloxy)ethyl)-6-(4-(trifluoromethoxy)phenyl)-[1,2,4]triazolo[4,3-a]pyridin-3(2H)-one]
inhibition at 1 µM: 6.62%

Cc1cnc(OCCn2nc3ccc(-c4ccc(OC(F)(F)F)cc4)cn3c2=O)nc1 [compound 82, 2-(2-(5-methylpyrimidin-2-yloxy)ethyl)-6-(4-(trifluoromethoxy)phenyl)-[1,2,4]triazolo[4,3-a]pyridin-3(2H)-one]
inhibition at 1 µM: 32.5%

Cc1noc(-c2ccccc2OCCn2nc3ccc(-c4ccc(OC(F)(F)F)cc4)cn3c2=O)n1 [compound 84, 2-(2-(2-(3-methyl-1,2,4-oxadiazol-5-yl)phenoxy)ethyl)-6-(4-(trifluoromethoxy)phenyl)-[1,2,4]triazolo[4,3-a]pyridin-3(2H)-one]
inhibition at 1 µM: 34.3%

Cc1nc(COCCn2nc3ccc(-c4ccc(OC(F)(F)F)cc4)cn3c2=O)no1 [compound 86, 2-(2-((5-methyl-1,2,4-oxadiazol-3-yl)methoxy)ethyl)-6-(4-(trifluoromethoxy)phenyl)-[1,2,4]triazolo[4,3-a]pyridin-3(2H)-one]
inhibition at 1 µM: 17.5%

O=c1n(CC(O)COc2ccc(Cl)cc2)nc2ccc(-c3ccc(OC(F)(F)F)cc3)cn12 (stereo not drawn) [compound 38, 2-(3-(4-chlorophenoxy)-2-hydroxypropyl)-6-(4-(trifluoromethoxy)phenyl)-[1,2,4]triazolo[4,3-a]pyridin-3(2H)-one]
inhibition at 1 µM: 10.8%
